In the NIST ThermoML archive (doi:10.1016/j.fluid.2007.07.010):
± gives the expanded uncertainty stated by the source.

Settings: Liquid, Ebulliometric method (Recirculating still)

SMILES | vapor or sublimation pressure (273.15 K) | vapor or sublimation pressure (283.15 K) | vapor or sublimation pressure (293.15 K) | vapor or sublimation pressure (303.15 K) | vapor or sublimation pressure (313.15 K) | vapor or sublimation pressure (323.15 K)
CC(F)F [1,1-difluoroethane] | 264 ± 2 kPa | 372 ± 2 kPa | 512 ± 3 kPa | 689 ± 3 kPa | 909 ± 4 kPa | 1176 ± 5 kPa
CCCC [butane] | 104 ± 2 kPa | 150 ± 2 kPa | 208 ± 2 kPa | 284 ± 2 kPa | 378 ± 3 kPa | 495 ± 3 kPa
